Assays:
MCF-7 (ER(+)) cells = test: Cell proliferation assay (sulforhodamine B); assay type: cell-based, human
Procedure: (§1) MCF-7 (ER(+)), T47D (ER(+)), and MDA-MB-231 (ER(−)) cell lines were from ATCC. Cell lines were maintained at 37°C in a humidified incubator in a 5% CO2-enriched atmosphere in T-75 flasks. […] Cells were grown for 24 h before treatment in phenol red-free medium containing 5% DCC-FCS. Cells were seeded into 96-well plates at 2000 cells/well. Treatment media (150 μl/well) was added on the following day and replaced at 48-h intervals until the end of the experiment. Cell density was measured via the sulforhodamine B method ([43]) after 0, 2, 4, 6, and 8 days. The absorbance of SRB was measured directly at 490 nm in the 96-well plates using a multiskan® multisoft reader from Labsystem.

T47D (ER(+)) cells = test: Cell proliferation assay (sulforhodamine B); assay type: cell-based, human
Procedure: as §1

[1] = system: ER-dependent transcription in MELN cells; test: ERE-luciferase reporter assay in MELN cells (MCF-7 stably transfected with ERE-β-globin-tk-Luc); assay type: cell-based, human; details: for stimulation of luciferase expression (ER-dependent transcription): 500 μM (tocols 10 to 500 μM)
From the text: MELN cells were established by transfecting ER(+) MCF-7 cells with the ERE-β-globin-tk-Luc-SV-Neo plasmid ([36]). HELN cells were generated by transfection of ER(−) HeLa cells with this plasmid. The HELN-ERα, HELN-ERβ, HELN-ΔAB-ERα, and HELN-ΔAB-ERβ cell lines then underwent a second transfection with the corresponding pSG5-puro plasmids (pSG5-ERα-puro, pSG5-ERβ-puro, pSG5-ΔAB-ERα-puro, and pSG5-ΔAB-ERβ-puro, respectively) and expressed wild-type or mutated ERα or ERβ ([39], [40]). […] Comparison of the activities toward hERα and hERβ with the truncated ΔAB-ERα and ΔAB-ERβ provides a powerful model to identify partial ER agonists (requiring ligand-independent AF-1 to induce maximal ER activation). […] Cells were grown routinely in DMEM growth medium supplemented with 5% FBS (Gibco BRL, Life Technologies, Cergy pontoise, France). Cells were incubated at 37°C in a humidified 5% CO2 incubator. For experiments, cells were grown for 5 days in phenol red-free medium, containing 6% dextran-coated charcoal-treated FCS (DCC-FCS) with penicillin–streptomycin. Medium was changed after 2 days. On day 5, cells were treated or not with the compounds, which were dissolved in ethanol. For each condition, 15 × 10^3 cells were seeded per well in 12-well plates and treated, as described above, for 8 h in a final volume of 0.5 ml. At the end of the treatment, cells were washed with PBS and lysed in 150 μl lysis buffer (Promega, Charbonnières, France). Luciferase activity was measured using the luciferase assay reagent (Promega), according to the manufacturer’s instructions. Protein concentrations were measured using the Bradford technique ([41]) to normalize the luciferase activity data. For each condition, average luciferase activity was calculated from the data of three independent wells.
Figure 3 Measurement of estrogenicity of tocols in vitro. (A) Dose–response curve of the effect of tocols on MCF-7 cells stably transfected with the ERE-β-globin-tk-Luc plasmid (MELN cells). […] Data shown are the mean values ± SEM from three independent experiments. […] MCF-7 extracts were analyzed for the presence of ERα by western blotting using GAPDH as a control. […] The western blot shown is representative of three independent experiments. The ratio of ERα to GAPDH levels in each experiment was determined densitometrically and normalized to control value (taken to be 1). (D) Effect of δ-tocols on estrogen response element-dependent luciferase activity in HELN cells, which are HELA cells transfected with either fully functional ERα or ERβ or their mutated versions containing a deletion the AB domain (ΔAB). […] Data shown are the mean values ± SEM from three independent experiments. […] Cells were treated with 500 μM δ-tocols in the presence or in the absence of ICI. The relative expression of TGFα, PR, and Ps2 (TFF1) after 16 h was analyzed by quantitative RT-PCR. Data shown are the mean values ± SEM from three independent experiments.

MDA-MB-231 (ER(−)) cells = test: Cell proliferation assay (sulforhodamine B); assay type: cell-based, human; details: 500 μM δ-TP or δ-TT; 30 μM lovastatin; 6-day period
Procedure: MCF-7 (ER(+)), T47D (ER(+)), and MDA-MB-231 (ER(−)) cell lines were from ATCC. Cell lines were maintained at 37°C in a humidified incubator in a 5% CO2-enriched atmosphere in T-75 flasks. MCF-7, T47D, and MDA-MB-231 cells were grown routinely in phenol red RPMI 1640 medium supplemented with 5% FBS (Gibco BRL, Life Technologies, Cergy Pontoise, France) and with penicillin–streptomycin. Cells were grown for 24 h before treatment in phenol red-free medium containing 5% DCC-FCS. Cells were seeded into 96-well plates at 2000 cells/well. Treatment media (150 μl/well) was added on the following day and replaced at 48-h intervals until the end of the experiment. Cell density was measured via the sulforhodamine B method ([43]) after 0, 2, 4, 6, and 8 days. The absorbance of SRB was measured directly at 490 nm in the 96-well plates using a multiskan® multisoft reader from Labsystem.
Figure 4 Effect of tocol on ER(+) and ER(−) BC cell proliferation and HMG-CoA reductase activity. (A) Effect of δ-tocols on estrogen and non-estrogen-regulated growth of MCF-7, T47D, and MDA-MB-231 cells. […] Cells were also treated with 30 μM lovastatin (Lova) in the presence or absence of 5 mM M, as described in Section “Materials and Methods.” Values are shown as means and vertical bars represent SEM. The data were analyzed by two-way ANOVA, followed by Bonferroni post hoc test. ***P < 0.001, **P < 0.01, and *P < 0.05 in comparison with control or bare-linked specific control. Ns: not significant. (B) Effect of δ-TT on hydroxymethylglutaryl coenzyme A reductase (HMGR) activity in MCF-7, T47D, and MDA-MB-231 cells. […] Data shown are the mean values ± SEM from three independent experiments performed in triplicate.

ERα = target: T1, ERα (Homo sapiens, UniProt P03372); test: Estrogen receptor-binding assay, competition with [3H]-17β-estradiol; set-up: expressed in transfected cells; host or cells: Cos-7; details: extracts of cos-7 cells expressing human ERα; 2 nM [3H]-E2; tocols 1 μM to 1 mM; N.M. = not measurable
T1 sequence (P03372 1-595): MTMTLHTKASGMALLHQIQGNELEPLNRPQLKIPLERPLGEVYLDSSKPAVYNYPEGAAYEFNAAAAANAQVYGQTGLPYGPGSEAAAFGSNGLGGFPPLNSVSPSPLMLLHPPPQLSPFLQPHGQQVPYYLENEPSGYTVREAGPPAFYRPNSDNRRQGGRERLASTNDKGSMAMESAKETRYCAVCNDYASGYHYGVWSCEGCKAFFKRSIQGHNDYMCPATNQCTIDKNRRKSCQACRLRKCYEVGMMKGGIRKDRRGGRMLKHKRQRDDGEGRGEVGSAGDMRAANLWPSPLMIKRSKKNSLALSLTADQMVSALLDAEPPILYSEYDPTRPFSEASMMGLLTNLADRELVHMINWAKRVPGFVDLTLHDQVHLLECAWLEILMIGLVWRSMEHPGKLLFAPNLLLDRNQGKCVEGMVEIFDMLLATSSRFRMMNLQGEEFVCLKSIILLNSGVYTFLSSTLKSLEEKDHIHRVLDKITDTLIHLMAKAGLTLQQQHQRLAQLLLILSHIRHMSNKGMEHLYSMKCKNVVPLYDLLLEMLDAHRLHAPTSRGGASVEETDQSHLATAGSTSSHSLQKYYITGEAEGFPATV

ERβ = ERβ (Homo sapiens, UniProt Q92731); test: as above; set-up: expressed in transfected cells; host or cells: Cos-7; details: extracts of cos-7 cells expressing human ERβ; 2 nM [3H]-E2; tocols 1 μM to 1 mM; N.M. = not measurable
[2] = 500 μM δ-TP or δ-TT, 30 μM lovastatin, 6-day period

Chain of ERβ (Q92731 whole entry): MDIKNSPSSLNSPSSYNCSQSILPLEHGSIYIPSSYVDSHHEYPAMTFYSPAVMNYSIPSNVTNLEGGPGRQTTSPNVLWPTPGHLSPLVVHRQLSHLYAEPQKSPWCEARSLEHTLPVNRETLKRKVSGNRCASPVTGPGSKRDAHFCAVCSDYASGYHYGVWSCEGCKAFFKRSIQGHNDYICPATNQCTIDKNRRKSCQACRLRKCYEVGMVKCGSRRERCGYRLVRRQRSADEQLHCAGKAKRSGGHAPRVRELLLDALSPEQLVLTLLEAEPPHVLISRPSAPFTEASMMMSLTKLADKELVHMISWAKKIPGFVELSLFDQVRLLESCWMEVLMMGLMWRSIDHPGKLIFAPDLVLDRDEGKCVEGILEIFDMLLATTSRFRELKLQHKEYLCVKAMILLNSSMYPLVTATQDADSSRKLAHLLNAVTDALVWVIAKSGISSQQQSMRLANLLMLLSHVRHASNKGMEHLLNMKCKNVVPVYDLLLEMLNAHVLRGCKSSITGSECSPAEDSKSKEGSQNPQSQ

| IC50 (ERα) | IC50 (ERβ) | SMILES | stimulation of luciferase expression (ER-dependent transcription) [1] | also measured |
| --- | --- | --- | --- | --- |
|  |  | CCCCN(C)C(=O)CCCCCCCCCCC1Cc2cc(O)ccc2C2CC[C@@]3(C)C(CC[C@@H]3O)C12 (stereo partly shown) [ICI 164,384, reference compound] |  | blockade of δ-TP- and E2-induced stimulation of MCF-7 proliferation (MCF-7 (ER(+)) cells; 1 μM ICI 164,384): blocked; blockade of δ-TP- and E2-induced stimulation of T47D proliferation (T47D (ER(+)) cells; 1 μM ICI 164,384): blocked; blockade of tocol-induced ER-dependent transcriptional activity ([1]; 1 μM ICI 164,384 with 500 μM δ-TP or δ-TT): blocked |
|  |  | CC[C@H](C)C(=O)O[C@H]1C[C@@H](C)C=C2C=C[C@H](C)[C@H](CC[C@@H]3C[C@@H](O)CC(=O)O3)[C@H]21 [lovastatin, reference compound] |  | effect on MCF-7 cell proliferation (MCF-7 (ER(+)) cells; [2]): inhibition of cell proliferation; effect on T47D cell proliferation (T47D (ER(+)) cells; [2]): inhibition of cell proliferation; effect on MDA-MB-231 cell proliferation (MDA-MB-231 (ER(−)) cells): inhibition of cell proliferation |
|  |  | CC1=CC(=O)C=C(CC[C@](C)(O)CCC[C@H](C)CCC[C@H](C)CCCC(C)C)C1=O [δ-TPQuin, δ-tocopherylquinone] | did not stimulate the expression of luciferase | ERα (IC50) (ERα): did not bind and N.M.; ERβ (IC50) (ERβ): did not bind and N.M. |
| 412 ± 22 µM | 388 ± 32 µM | CC(C)=CCC/C(C)=C/CC/C(C)=C/CC[C@]1(C)CCc2c(C)c(O)c(C)c(C)c2O1 [α-TT, α-tocotrienol] |  |  |
|  |  | Cc1cc(C(C)(C)C)c(O)c(C(C)(C)C)c1 [BHT, butylated hydroxytoluene, reference compound] | did not stimulate the expression of luciferase |  |
| 453 ± 30 µM | 431 ± 21 µM | Cc1c(C)c2c(c(C)c1O)CC[C@@](C)(CCC[C@H](C)CCC[C@H](C)CCCC(C)C)O2 [α-TP, α-tocopherol] |  |  |
| 227 ± 28 µM | 215 ± 16 µM | Cc1c(O)cc2c(c1C)O[C@](C)(CCC[C@H](C)CCC[C@H](C)CCCC(C)C)CC2 [γ-TP, γ-tocopherol] |  |  |
|  |  | CC(C)(Sc1cc(C(C)(C)C)c(O)c(C(C)(C)C)c1)Sc1cc(C(C)(C)C)c(O)c(C(C)(C)C)c1 [Probucol, probucol, reference compound] | did not stimulate the expression of luciferase |  |

| SMILES | IC50 (ERα) | IC50 (ERβ) | stimulation of luciferase expression (ER-dependent transcription) [1] | also measured |
| --- | --- | --- | --- | --- |
| CC(C)=CCC/C(C)=C/CC/C(C)=C/CC[C@]1(C)CCc2cc(O)c(C)c(C)c2O1 [γ-TT, γ-tocotrienol] | 203 ± 25 µM | 205 ± 18 µM |  |  |

Source: PMC4700278, “Molecular and Biochemical Analysis of the Estrogenic and Proliferative Properties of Vitamin E Compounds” (Frontiers in Oncology, 2016)
